Source: patent publication US20070160725A1, “Use of extracts and compounds of allium-genus plants as preservatives in the food and agri-food industries” (MOUSALA, S., L., priority 2004, published 2007)
“And” between values parts separate entries of the source, which are not always exact repeats. Equal values may be shown once.

What was measured:
[1] = test system: Penicillium italicum CECT 2294; assay: agar diffusion, inhibition halo; assay type: cell-based; details: Penicillium italicum; for zone of inhibition at 1000 ppm: CECT2294, read-out: inhibition halo diameter
Protocol: (§1) In order to evaluate the antimicrobial activity the agar diffusion technique with cellulose discs of 6 mm in diameter impregnated with the different active ingredient testing doses was used.
(§2) Antifungal capacity was assessed against suspensions of […], harvested from pure cultures of the selected molds and against suspensions of 10^7 cells/ml for the case of yeasts. The culture medium used was the 2% Sabouraud-glucose medium (Merck).
(§3) After incubating the culture dishes inoculated with the different organisms at the corresponding temperatures, the microbial inhibition halos that appeared were measured, and said measurement includes the 6 mm diameter of the cellulose discs.

[2] = test system: Mucor plumbeus, isolated from cheese; assay: agar diffusion, inhibition halo; assay type: cell-based
Protocol: as §1, §2, §3

[3] = test system: Salmonella typhimurium, ATCC 13311; assay: agar diffusion, inhibition halo; assay type: cell-based
Protocol: as §1
(§4) Antibacterial capacity was assessed against suspensions of 10^6 cells/ml, prepared from pure young cultures of each one of the strains to be tested. The culture medium used was Müller-Hinton medium (Merck).
as §3

[4] = test system: Staphylococcus aureus, isolated from hamburgers; assay: agar diffusion, inhibition halo; assay type: cell-based
Protocol: as §1, §4, §3

[5] = test system: Bacillus subtilis, isolated from paprika; assay: agar diffusion, inhibition halo; assay type: cell-based; details: 1000 ppm
Protocol: as §1, §4, §3

mold = assay: preserving activity on the surface of sausages (large intestine chorizo and spiced sausage); details: intestines submerged in a pimaricin solution at 500 ppm for 3 hours before stuffing
Protocol: (§5) These tests were carried out according to the instructions for applying said commercial preparations on foods by immersion, such as spiced sausage, chorizo, cheese, etc. (see application examples), with different antimicrobial product doses.
Preparing sample 1: First a series of pig large intestines are submerged in a dispersion of pimaricin in water, 500 ppm, for three hours. Then two pieces are stuffed with 600 g each.
Then 4 other pieces are stuffed with 600 g each and are treated as follows: • Control sample: two pieces are left untreated. • Sample 2: Two pieces are submerged for 2 minutes in a dispersion of sucrose esters in water (10-40 g/kg of water), with a concentration of 3000 ppm of PTS.
All the pieces are subjected to drying between 24 and 26° C. and 90% relative humidity for 72 hours. Then they are hung and left to cure. The external appearance is monitored and the following results are obtained: […]

[6] = test system: Geotrichum candidum CECT 1902; assay: agar diffusion, inhibition halo; assay type: cell-based
Protocol: as §1, §2, §3

[7] = test system: Penicillium funiculosum, CECT 2702; assay: agar diffusion, inhibition halo; assay type: cell-based
Protocol: as §1, §2, §3

[8] = test system: Pullularia pullulans, CECT 2657; assay: agar diffusion, inhibition halo; assay type: cell-based
Protocol: as §1, §2, §3

[9] = test system: Aspergillus terreus, isolated from the environment of the cheese maturation chamber; assay: agar diffusion, inhibition halo; assay type: cell-based
Protocol: as §1, §2, §3

[10] = test system: Penicillium sp, isolated from cheese; assay: agar diffusion, inhibition halo; assay type: cell-based
Protocol: as §1, §2, §3

[11] = test system: Candida albicans, ATCC 10231; assay: agar diffusion, inhibition halo; assay type: cell-based
Protocol: as §1, §2, §3

[12] = test system: Saccharomyces cerevisiae, CECT 1324; assay: agar diffusion, inhibition halo; assay type: cell-based
Protocol: as §1, §2, §3

[13] = test system: Aspergillus niger, CECT 2700; assay: agar diffusion, inhibition halo; assay type: cell-based
Protocol: as §1, §2, §3

[14] = test system: Trichoderma viride, CECT 2460; assay: agar diffusion, inhibition halo; assay type: cell-based
Protocol: as §1, §2, §3

[15] = test system: mold on the surface of the cheese; assay: preservative activity on surface of cheese (PVA emulsion coating); details: fresh cheese, PVA emulsion with 2000 ppm pimaricin with 12000 ppm of potassium sorbate, diluted 1:1 with water, room temperature
Protocol: as §5
The amounts of PTS and pimaricin with potassium sorbate (12000 ppm) as shown in the corresponding table are added to emulsions of 1 kg of PVA. Said preparations are diluted 1:1 with water and pieces of fresh cheese without surface treatment are submerged therein. Once the pieces are dry, each one is introduced into a sealed recipient and is left at room temperature. They are monitored, and the occurrence of mold on their surface is observed on the days herein set forth:
Amounts of complex in α-cyclodextrin (sample 2) and β-cyclodextrin (sample 3) are added to emulsions of 1 kg of PVA such that the amount of active ingredient, PTS, is 5000 ppm. On the other hand a sample (no. 1) is prepared with pimaricin (2000 ppm) and potassium sorbate (12000 ppm). The same process is followed as in the previous case upon applying the products and the samples are monitored, the occurrence of mold on the surface of the cheese being observed according to the following table: […]

[16] = test system: Bacillus cereus, CECT 1178; assay: agar diffusion, inhibition halo; assay type: cell-based
Protocol: as §1, §4, §3

[17] = test system: Micrococcus luteus, isolated from a spiced sausage; assay: agar diffusion, inhibition halo; assay type: cell-based
Protocol: as §1, §4, §3

[18] = test system: Pseudomonas aeruginosa, ATCC 13925; assay: agar diffusion, inhibition halo; assay type: cell-based
Protocol: as §1, §4, §3

[19] = test system: Escherichia coli, CECT 515; assay: agar diffusion, inhibition halo; assay type: cell-based
Protocol: as §1, §4, §3

[20] = test system: Proteus vulgaris, ATCC 13315; assay: agar diffusion, inhibition halo; assay type: cell-based
Protocol: as §1, §4, §3

[21] = test system: Bacillus megaterium, ATCC 33085; assay: agar diffusion, inhibition halo; assay type: cell-based
Protocol: as §1, §4, §3

[22] = test system: Streptococcus faecalis, isolated from a spiced sausage; assay: agar diffusion, inhibition halo; assay type: cell-based
Protocol: as §1, §4, §3

[23] = test system: Trichoderma aureoviride CECT 20102; assay: agar diffusion, inhibition halo; assay type: cell-based
Protocol: as §1, §2, §3

[24] = test system: Rhizopus stolonifer CECT 2344; assay: agar diffusion, inhibition halo; assay type: cell-based
Protocol: as §1, §2, §3

[25] = in polyvinyl acetate emulsion, 2000 ppm
[26] = 250 ppm (second column headed 250)
[27] = CECT2294, read-out: inhibition halo diameter
[28] = 4000 ppm (active ingredient, dose in ppm)
[29] = 6000 ppm (active ingredient, dose in ppm)

CCCCS[S+]([O-])CCCC (stereo not shown) [BTS, n-butyl n-butyl thiosulfinate]
zone of inhibition at 1000 ppm [1]: 67 mm | inhibition halo diameter ([2]; 1000 ppm): 17 mm | inhibition halo diameter ([3]; 1000 ppm): 20 mm | inhibition halo diameter ([4]; 1000 ppm): 45 mm | inhibition halo diameter [5]: 60 mm

CCCSS(=O)(=O)CCC [PTSO, Propyl Propylthiosulfonate]
zone of inhibition at 1000 ppm [1]: 65 mm | inhibition halo diameter ([2]; 1000 ppm): 13 mm | inhibition halo diameter ([3]; 1000 ppm): 31 mm | inhibition halo diameter ([4]; 1000 ppm): 55 mm | inhibition halo diameter [5]: 65 mm

C[C@@H]1C/C=C/C=C/C=C/C=C/[C@H](O[C@@H]2O[C@H](C)[C@@H](O)[C@H](N)[C@@H]2O)C[C@@H]2O[C@](O)(C[C@@H](O)C[C@H]3O[C@@H]3/C=C/C(=O)O1)C[C@H](O)[C@H]2C(=O)O [Pimaricin, pimaricin]
Visible occurrence of mold at (mold): 6 days | inhibition halo diameter [6, 25]: 15 mm | inhibition halo diameter ([7]; 62.5 ppm): 10 mm | inhibition halo diameter ([7]; 250 ppm): 11 mm | inhibition halo diameter [7, 26]: 10 mm | inhibition halo diameter ([7]; 500 ppm): 12 mm | inhibition halo diameter ([7]; 1000 ppm): 12 mm | inhibition halo diameter ([8]; 62.5 ppm): 24 mm | inhibition halo diameter ([8]; 250 ppm): 28 mm | inhibition halo diameter [8, 26]: 28 mm | inhibition halo diameter ([8]; 500 ppm): 30 mm | inhibition halo diameter ([8]; 1000 ppm): 23 mm | inhibition halo diameter ([9]; 100 ppm): 14 mm | inhibition halo diameter ([9]; 1000 ppm): 15 mm | inhibition halo diameter ([10]; 100 ppm): 24 mm | inhibition halo diameter ([10]; 1000 ppm): 26 mm | inhibition halo diameter [10, 25]: 18 mm | inhibition halo diameter ([11]; 62.5 ppm): 10 mm | inhibition halo diameter ([11]; 250 ppm): 12 mm | inhibition halo diameter [11, 26]: 12 mm | inhibition halo diameter ([11]; 500 ppm): 14 mm | inhibition halo diameter ([11]; 1000 ppm): 16 mm | inhibition halo diameter ([12]; 100 ppm): 26 mm | inhibition halo diameter ([12]; 1000 ppm): 26 mm | inhibition halo diameter ([13]; 62.5 ppm): 19 mm | inhibition halo diameter ([13]; 250 ppm): 19 mm | inhibition halo diameter [13, 26]: 19 mm | inhibition halo diameter ([13]; 500 ppm): 20 mm | inhibition halo diameter ([13]; 1000 ppm): 20 mm | inhibition halo diameter [13, 25]: 20 mm | inhibition halo diameter [2, 25]: 13 mm | inhibition halo diameter ([14]; 62.5 ppm): 13 mm | inhibition halo diameter ([14]; 250 ppm): 15 mm | inhibition halo diameter [14, 26]: 14 mm | inhibition halo diameter ([14]; 500 ppm): 16 mm | inhibition halo diameter ([14]; 1000 ppm): 18 mm | Visible occurrence of mold at [15]: 10 to 15 days and 10 to 16 days | inhibition halo diameter ([16]; 100 ppm): 0 mm | inhibition halo diameter ([16]; 1000 ppm): 0 mm | inhibition halo diameter ([17]; 100 ppm): 0 mm | inhibition halo diameter ([17]; 1000 ppm): 0 mm | inhibition halo diameter ([18]; 62.5 ppm): 0 mm | inhibition halo diameter ([18]; 250 ppm): 0 mm | inhibition halo diameter [18, 26]: 0 mm | inhibition halo diameter ([18]; 500 ppm): 0 mm | inhibition halo diameter ([18]; 1000 ppm): 0 mm | inhibition halo diameter ([3]; 62.5 ppm): 0 mm | inhibition halo diameter ([3]; 250 ppm): 0 mm | inhibition halo diameter [3, 26]: 0 mm | inhibition halo diameter ([3]; 500 ppm): 0 mm | inhibition halo diameter ([3]; 1000 ppm): 0 mm | inhibition halo diameter ([4]; 62.5 ppm): 0 mm | inhibition halo diameter ([4]; 250 ppm): 0 mm | inhibition halo diameter [4, 26]: 0 mm | inhibition halo diameter ([4]; 500 ppm): 0 mm | inhibition halo diameter ([4]; 1000 ppm): 0 mm | inhibition halo diameter ([19]; 62.5 ppm): 0 mm | inhibition halo diameter ([19]; 250 ppm): 0 mm | inhibition halo diameter [19, 26]: 0 mm | inhibition halo diameter ([19]; 500 ppm): 0 mm | inhibition halo diameter ([19]; 1000 ppm): 0 mm | inhibition halo diameter ([20]; 62.5 ppm): 0 mm | inhibition halo diameter ([20]; 250 ppm): 0 mm | inhibition halo diameter [20, 26]: 0 mm | inhibition halo diameter ([20]; 500 ppm): 0 mm | inhibition halo diameter ([20]; 1000 ppm): 0 mm | inhibition halo diameter ([21]; 62.5 ppm): 0 mm | inhibition halo diameter ([21]; 250 ppm): 0 mm | inhibition halo diameter [21, 26]: 0 mm | inhibition halo diameter ([21]; 500 ppm): 0 mm | inhibition halo diameter ([21]; 1000 ppm): 0 mm | inhibition halo diameter ([22]; 62.5 ppm): 0 mm | inhibition halo diameter ([22]; 250 ppm): 0 mm | inhibition halo diameter [22, 26]: 0 mm | inhibition halo diameter ([22]; 500 ppm): 0 mm | inhibition halo diameter ([22]; 1000 ppm): 0 mm

Oc1ccccc1-c1ccccc1 [o-Phenyl phenol]
zone of inhibition at 4000 ppm [1, 27]: 45 mm | zone of inhibition at 6000 ppm [1, 27]: 45 mm | inhibition halo diameter [6, 28]: 45 mm | inhibition halo diameter [6, 29]: 47 mm | inhibition halo diameter [23, 28]: 40 mm | inhibition halo diameter [23, 29]: 42 mm | inhibition halo diameter [24, 28]: 14 mm | inhibition halo diameter [24, 29]: 15 mm
